The source of these data is patent US5326751A, “Enkephalin analogs” (Arizona Board of Regents on behalf of the University of …, priority 1992, dated 1994).

In experiment [1] the target is T1, delta-type opioid receptors (Rattus norvegicus, UniProt P33533).
T1 construct: Whole brains with cerebellum removed were homogenized in 100 volumes of Tris-HCl buffer; from tissue; host or cells: rat brain (without cerebellum), washed homogenate
Nature of the experiment: displacement of [3H][p-Cl-Phe4]DPDPE in rat brain homogenate. It counts as binding. The settings on record: for IC50: rat brain homogenate, 1 nM radioligand, 25° C., 40 min, read-out: IC50 (nM) ± S.E.E. [3H] p-Cl-DPDPE. The protocol: (§1) The binding potencies of each compound for mu and delta receptors in rat brain extracts was determined by competition assays against radiolabelled compounds known to bind opioid receptors. […] The ability of a tested compound to displace tritiated ligands from their respective receptor molecules is a measure of the compound's binding potency for the receptor of the displaced ligand.
(§2) Brains from male Sprague-Dawley rats were rapidly removed following sacrifice. Whole brains with cerebellum removed were homogenized in 100 volumes of Tris-HCl buffer (pH 7.4 at 25°). Tissue homogenates were washed twice in the same buffer by centrifugation at 48,000 g for 10 min. Pellets were resuspended in the same buffer.
Total incubation volume was 2 ml. After 40 min., the mixture was rapidly filtered through Whatman GF/B glass fiber filters and washed 3 times with 5 ml of ice-cold buffer.
(§3) Filter-bound radioactivity was quantitated by liquid scintillation spectrophotometry with an efficiency of 46%. Radio-ligand displaced by 1 μM natrexone hydrochloride was defined as specific tissue binding.
For orientation: Displacement assays read how much labelled ligand stays bound in the presence of the test substance.

The target in another experiment is T2, mu-type opioid receptors (Rattus norvegicus, UniProt P33535).
T2 construct: Whole brains with cerebellum removed were homogenized in 100 volumes of Tris-HCl buffer; from tissue; host or cells: rat brain (without cerebellum), washed homogenate
T2 sequence (P33535 whole entry): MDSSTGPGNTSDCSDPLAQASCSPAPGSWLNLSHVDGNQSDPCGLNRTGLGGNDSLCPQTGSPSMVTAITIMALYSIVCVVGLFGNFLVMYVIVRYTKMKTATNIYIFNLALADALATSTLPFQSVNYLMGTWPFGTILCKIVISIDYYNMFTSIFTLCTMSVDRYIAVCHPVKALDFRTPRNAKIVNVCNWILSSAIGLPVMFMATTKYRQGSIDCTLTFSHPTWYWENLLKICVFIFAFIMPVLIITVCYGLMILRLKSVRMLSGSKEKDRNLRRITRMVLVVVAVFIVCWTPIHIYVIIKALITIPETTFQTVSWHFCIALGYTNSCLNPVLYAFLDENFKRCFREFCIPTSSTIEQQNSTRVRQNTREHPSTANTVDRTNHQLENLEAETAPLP
Nature of the experiment: displacement of [3H]CTOP in rat brain homogenate. The class given is binding. The conditions noted are these: 25° C., read-out: IC50 (nM) ± S.E.E. [3H] CTOP. The protocol: as §1, §2, §3

In experiment [2] the target is guinea pig ileum (GPI), primarily mu-type opiate receptors (Cavia porcellus, UniProt P97266). Nature of the experiment: guinea pig ileum (GPI) assay: inhibition of electrically induced muscle contractions. It counts as cell-based. The conditions noted are these: for IC50: guinea pig ileum, electrically stimulated contractions, read-out: IC50 (nM) ± S.E.E. GPI. On the set-up: inh in GPI: dose or concentration left out as unconfirmed. The protocol: The guinea pig ileum longitudinal muscle-myenteric plexus preparation was prepared following the method of Kosterlitz, et al. Brit. J. Pharmacol., 39, 398-413 (1970). Agonists were added to the tissue bath and remained in contact with the tissue for a maximum of three minutes.
Sequence of guinea pig ileum (GPI), primarily mu-type opiate receptors (P97266 whole entry, looked up): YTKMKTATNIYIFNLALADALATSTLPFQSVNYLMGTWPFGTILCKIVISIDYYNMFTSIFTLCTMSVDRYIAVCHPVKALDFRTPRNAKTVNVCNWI

Experiment [3] has as its target T3, mouse vas deferens (MVD), primarily delta-type opiate receptors (Mus musculus, UniProt P32300).
T3 construct: from tissue; host or cells: mouse vas deferens
Nature of the experiment: mouse vas deferens (MVD) assay: inhibition of electrically induced muscle contractions. The class given is cell-based. The conditions noted are these: for IC50: mouse vas deferens, electrically stimulated contractions, read-out: IC50 (nM) ± S.E.E. MVD. On the procedure: The MVD preparation contains primarily delta-type opiate receptors, with some kappa and mu receptors.
The mouse vas deferens was prepared following the method of Hughes, et al. cites Brit. J. Pharmacol., 53, 371-381 (1975). One pair of vasa deferentia was used in each experiment.

Each structure is given as a SMILES string. Bridge positions count the residues as written; N and C are the ends. Square brackets hold non-standard residues; d marks the D form. Peptide text beside a SMILES is read from it. Phe(4-NO2) = N[C@@H](Cc1ccc([N+](=O)[O-])cc1)C(=O)O; Phe(4-Br) = N[C@@H](Cc1ccc(Br)cc1)C(=O)O; Phe(4-Cl) = N[C@@H](Cc1ccc(Cl)cc1)C(=O)O; Phe(4-F) = N[C@@H](Cc1ccc(F)cc1)C(=O)O; Phe(4-I) = N[C@@H](Cc1ccc(I)cc1)C(=O)O; dPen = CC(C)(S)[C@@H](N)C(=O)O; dAbu = CC[C@@H](N)C(=O)O; Ac5c = NC1(C(=O)O)CCCC1; Abu = CC[C@H](N)C(=O)O

What is called IC50 is the concentration that gives 50% inhibition.

T1 sequence (P33533 whole entry): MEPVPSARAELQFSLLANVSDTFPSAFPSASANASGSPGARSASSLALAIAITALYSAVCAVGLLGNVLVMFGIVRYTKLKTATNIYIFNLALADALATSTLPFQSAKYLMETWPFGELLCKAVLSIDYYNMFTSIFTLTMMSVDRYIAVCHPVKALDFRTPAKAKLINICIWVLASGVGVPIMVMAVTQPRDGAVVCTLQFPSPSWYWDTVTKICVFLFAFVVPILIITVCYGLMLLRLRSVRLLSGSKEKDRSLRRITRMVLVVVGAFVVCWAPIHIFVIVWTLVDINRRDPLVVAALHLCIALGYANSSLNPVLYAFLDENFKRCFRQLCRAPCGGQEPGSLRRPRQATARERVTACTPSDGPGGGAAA
T3 sequence (P32300 whole entry): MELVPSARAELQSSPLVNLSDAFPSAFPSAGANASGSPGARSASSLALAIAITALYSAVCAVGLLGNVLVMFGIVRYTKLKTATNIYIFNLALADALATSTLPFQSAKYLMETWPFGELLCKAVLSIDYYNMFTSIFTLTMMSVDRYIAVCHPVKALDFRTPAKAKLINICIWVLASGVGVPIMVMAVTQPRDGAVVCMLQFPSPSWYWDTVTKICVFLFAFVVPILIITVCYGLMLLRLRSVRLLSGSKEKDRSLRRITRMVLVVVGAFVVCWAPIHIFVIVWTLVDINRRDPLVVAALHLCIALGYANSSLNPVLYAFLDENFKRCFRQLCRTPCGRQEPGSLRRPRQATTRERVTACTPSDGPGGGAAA

On to `CC1(C)SSC(C)(C)[C@@H](NC(=O)[C@@H](N)Cc2ccc(O)cc2)C(=O)N[C@@H](CO)C(=O)N[C@@H](Cc2ccccc2)C(=O)N[C@H]1C(=O)O` [[L--Ser^3]DPDPE] (H-Y[dPen]SF[dPen]-OH; disulfide 2-5), for which the half-maximal inhibitory concentration (IC50) in experiment [1] was 42 ± 3 nM; at mu-type opioid receptors, above 22500 nM; in experiment [2] it was 39400 ± 7160 nM; in experiment [3] it was 252 ± 32.5 nM.
`C[C@@H]1NC(=O)[C@H](NC(=O)[C@@H](N)Cc2ccc(O)cc2)C(C)(C)SSC(C)(C)[C@H](C(=O)O)NC(=O)[C@H](Cc2ccc([N+](=O)[O-])cc2)NC1=O` [[p-NO2 --Phe^4 ]DPADPE] (H-Y[dPen]A[Phe(4-NO2)][dPen]-OH; disulfide 2-5): the half-inhibitory concentration (IC50) in experiment [1] was 3.5 ± 0.25 nM; at mu-type opioid receptors, 712 ± 3 nM; in experiment [2], 13500 ± 1210 nM; in experiment [3] it was 3.74 ± 0.356 nM.
Consider `CC[C@@H]1NC(=O)[C@H](NC(=O)[C@@H](N)Cc2ccc(O)cc2)C(C)(C)SSC(C)(C)[C@H](C(=O)O)NC(=O)[C@H](Cc2ccccc2)NC1=O` [[L--Abu^3]DPDPE] (H-Y[dPen][Abu]F[dPen]-OH; disulfide 2-5), for which the IC50 in experiment [1] worked out at 66.3 ± 30.4 nM; on mu-type opioid receptors it was 12000 ± 938 nM; in experiment [2], 4870 ± 345 nM; in experiment [3], 84.9 ± 12.5 nM.
Consider `CC1(C)SSC(C)(C)[C@@H](NC(=O)[C@@H](N)Cc2ccc(O)cc2)C(=O)NC2(CCCC2)C(=O)N[C@@H](Cc2ccccc2)C(=O)N[C@H]1C(=O)O` [[AC5 C^3]DPDPE] (H-Y[dPen][Ac5c]F[dPen]-OH; disulfide 2-5), for which the IC50 is 312 ± 39 nM in experiment [1], 1760 ± 45 nM on mu-type opioid receptors, 857 ± 31.7 nM in experiment [2] and 370 ± 162 nM in experiment [3].
For `C[C@@H]1NC(=O)[C@H](NC(=O)[C@@H](N)Cc2ccc(O)cc2)C(C)(C)SSC(C)(C)[C@H](C(=O)O)NC(=O)[C@H](Cc2ccc(I)cc2)NC1=O` [[p-I--Phe^4 ]DPADPE] (H-Y[dPen]A[Phe(4-I)][dPen]-OH; disulfide 2-5), the half-inhibitory concentration (IC50) in experiment [1] stood at 12.5 ± 0.5 nM; at mu-type opioid receptors it was 3670 ± 396 nM; in experiment [2] it was 30800 ± 1550 nM; in experiment [3], 11 ± 1.23 nM.
The corresponding values for `C[C@@H]1NC(=O)[C@H](NC(=O)[C@@H](N)Cc2ccc(O)cc2)C(C)(C)SSC(C)(C)[C@H](C(=O)O)NC(=O)[C@H](Cc2ccc(Br)cc2)NC1=O` [[p-Br--Phe^4 ]DPADPE] (H-Y[dPen]A[Phe(4-Br)][dPen]-OH; disulfide 2-5) are 5.3 ± 0.86 nM, 2710 ± 453 nM, 40800 ± 2950 nM and 2.95 ± 0.686 nM.
Consider `C[C@@H]1NC(=O)[C@H](NC(=O)[C@@H](N)Cc2ccc(O)cc2)C(C)(C)SSC(C)(C)[C@H](C(=O)O)NC(=O)[C@H](Cc2ccccc2)NC1=O` [[L--Ala^3 ]DPDPE (DPADPE), L-Tyrosyl-D-penicillaminyl-L--alanyl-L-phenylalanyl-D-penicillaminyl cyclic (2-5) disulfide] (H-Y[dPen]AF[dPen]-OH; disulfide 2-5), for which the “RATIO (μ/δ), Table 2” value in experiment [1] ([3H]CTOP IC50 / [3H]p-Cl-DPDPE IC50, rat brain) stood at 598. In addition, the IC50 in experiment [1] came to 18.4 ± 0.43 nM; on mu-type opioid receptors, 11000 ± 13 nM; in experiment [2] it was 121000 ± 81400 nM; in experiment [3], 11.8 ± 1.62 nM. For the same molecule, the “RATIO (μ/δ), Table 1” value in experiment [3] (GPI IC50 / MVD IC50) was 10,315.
Turning to `C[C@@H]1NC(=O)[C@H](NC(=O)[C@@H](N)Cc2ccc(O)cc2)C(C)(C)SSC(C)(C)[C@H](C(=O)O)NC(=O)[C@H](Cc2ccc(F)cc2)NC1=O` [[p-F--Phe^4 ]DPADPE] (H-Y[dPen]A[Phe(4-F)][dPen]-OH; disulfide 2-5), the IC50 in experiment [1] was found to be 0.55 ± 0.14 nM; at mu-type opioid receptors it was 1460 ± 253 nM; in experiment [2] it was 4600 ± 1010 nM; in experiment [3], 3.61 ± 0.367 nM.
On the same counts, the results for `C[C@@H]1NC(=O)[C@H](NC(=O)[C@@H](N)Cc2ccc(O)cc2)C(C)(C)SSC(C)(C)[C@H](C(=O)O)NC(=O)[C@H](Cc2ccc(Cl)cc2)NC1=O` [[p-Cl--Phe^4 ]DPADPE] (H-Y[dPen]A[Phe(4-Cl)][dPen]-OH; disulfide 2-5) are 3.7 ± 0.9 nM, 1120 ± 260 nM, 25500 ± 10300 nM and 1.94 ± 0.295 nM.
Regarding `C[C@H]1NC(=O)[C@H](NC(=O)[C@@H](N)Cc2ccc(O)cc2)C(C)(C)SSC(C)(C)[C@H](C(=O)O)NC(=O)[C@H](Cc2ccccc2)NC1=O` [[D--Ala^3]DPDPE] (H-Y[dPen][dA]F[dPen]-OH; disulfide 2-5), the IC50 in experiment [1] is 535 ± 58 nM; on mu-type opioid receptors, above 35000 nM; in experiment [2] it was 33300 ± 817 nM; in experiment [3] it was 572 ± 131 nM.
On to `CC1(C)SSC(C)(C)[C@@H](NC(=O)[C@@H](N)Cc2ccc(O)cc2)C(=O)N[C@H](CO)C(=O)N[C@@H](Cc2ccccc2)C(=O)N[C@H]1C(=O)O` [[D--Ser^3]DPDPE] (H-Y[dPen][dS]F[dPen]-OH; disulfide 2-5), for which the half-inhibitory concentration (IC50) in experiment [1] is 764 ± 106 nM; at mu-type opioid receptors, above 50000 nM; in experiment [3], 1280 ± 245 nM. In addition, the “inh in GPI” value in experiment [2] was determined as 3 % inh.
Consider `CC[C@H]1NC(=O)[C@H](NC(=O)[C@@H](N)Cc2ccc(O)cc2)C(C)(C)SSC(C)(C)[C@H](C(=O)O)NC(=O)[C@H](Cc2ccccc2)NC1=O` [[D--Abu^3]DPDPE] (H-Y[dPen][dAbu]F[dPen]-OH; disulfide 2-5), for which the half-maximal inhibitory concentration (IC50) in experiment [1] was 3380 ± 1070 nM; at mu-type opioid receptors, above 50000 nM; in experiment [2], 29900 ± 2670 nM; in experiment [3], 1950 ± 204 nM.
